Source: publication PMC7504435, “Combined Protein- and Ligand-Observed NMR Workflow to Screen Fragment Cocktails against Multiple Proteins: A Case Study Using Bromodomains” (Molecules, 2020)

Columns and labels:
Format in all cases: binding
PfGCN5 bromodomain = PfGCN5 bromodomain (Plasmodium falciparum, UniProt Q8IB67); assay: 1H CPMG NMR deconvolution of hit mixtures, PfGCN5; settings: 10 µM protein, 100 µM ligand
Experimental: (§1) The second step is a ^1H CPMG NMR deconvolution of the hit mixtures using the non-fluorine-labeled bromodomains. ^1H CPMG NMR employs a T2 filter to take advantage of the difference in transverse relaxation time between protein and small molecules to filter out the bound-state ligand(s). Unlike the PrOF NMR assay, a single protein is assayed in each experiment. A binding event is characterized by a decrease in ligand resonance intensity from the ligand alone spectrum to the ligand + protein spectrum. A hit is defined as a decrease in resonance intensity ≥ 20%. The ^1H CPMG NMR assay can be tuned by changing the protein or ligand concentration, filter length (Figure 1), or hit criteria depending on how stringent the desired hit rate is. The number of ^1H CPMG NMR deconvolution experiments is directly informed from the first step. If a mixture from the first step was only a hit for one protein, a single ^1H CPMG NMR deconvolution experiment is needed. If a mixture from the first step was a hit for both proteins, two separate ^1H CPMG NMR deconvolutions experiments are needed to determine the fragments that bind to each protein.
(§2) ^1H CPMG NMR. ^1H CPMG NMR screen data were acquired on Bruker Avance III HD 500 with the 5 mm Prodigy TCI cryoprobe inverse cryoprobe (^1H 2500:1 S/N). Competition ^1H CPMG NMR data were acquired on Bruker 700 MHz Avance with a CryoProbe 5 mm TXI (^1H S:N with H2O suppression (2mM sucrose) - 900:1) and excitation sculpting water suppression. Proteins were present at 10 µM in 50 mM phosphate, 100 mM NaCl, pH 7.4 in 100% D2O. In separate NMR tubes, a ^1H CPMG NMR pulse was applied to a 1) mixture of ligands (individual ligands present at 100 µM for the screen and 50 µM for competition experiments) and 2) ligands + protein. […] For the competition experiments, τ was increased to 4.0 ms.

BPTF bromodomain [1] = molecular target: T1, BPTF bromodomain (Homo sapiens, UniProt Q12830); assay: 1H CPMG NMR deconvolution of hit mixtures, BPTF; set-up: deconvolution of the hit mixtures using the non-fluorine-labeled bromodomains; made in house; host or cells: E. coli BL21(DE3); settings: 10 µM protein, 100 µM ligand
Experimental: as §1, §2

BPTF bromodomain [2] = molecular target: T1, BPTF bromodomain; assay: Competition 1H CPMG NMR with BPTF; set-up: deconvolution of the hit mixtures using the non-fluorine-labeled bromodomains; made in house; host or cells: E. coli BL21(DE3)
Experimental: The competition ^1H CPMG NMR and PrOF NMR assays were employed to further probe the binding mode of 9 to PfGCN5.
as §2

[3] = for 9 from competition experiments (footnote a)

Sequence of PfGCN5 bromodomain (Q8IB67 entry or part of it): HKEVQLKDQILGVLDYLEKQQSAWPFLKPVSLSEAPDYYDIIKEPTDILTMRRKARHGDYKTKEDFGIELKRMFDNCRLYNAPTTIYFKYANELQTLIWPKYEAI

Nc1ccc2c(c1)N(C(=O)C1CC1)CCC2 [Fragment 9]
PfGCN5 CPMG % decrease (PfGCN5 bromodomain): 100% | 1H CPMG NMR % Drop in Resonance Intensity PfGCN5 (PfGCN5 bromodomain; [3]): ++++ ^a (++++ = 80–99.9%) | BPTF CPMG % decrease (BPTF bromodomain [1]): 100% | 1H CPMG NMR % Drop in Resonance Intensity BPTF (BPTF bromodomain [1]; [3]): ++++ ^a (++++ = 80–99.9%) | % drop BPTF (BPTF bromodomain [2]; resonance of 9 at 2.6884 ppm): 46% | % drop BPTF (BPTF bromodomain [2]; resonance of 9 at 6.98 ppm): 68%
